Marks after values point to notes of the source that are not given here. Where a SMILES comes first, the peptide text is derived from it. The star is where a group is joined. Myristoyl = CCCCCCCCCCCCCC(=O)*
Test system: methacholine-induced mucin hypersecretion
Experiment: Methacholine-induced mucin hypersecretion in ovalbumin-sensitized mouse model of asthma, BAL mucin ELISA (Balb/C mice)
Assay type: in vivo
Details: Table II, peptides at 100 μM, 50 μL intratracheal 15 min before methacholine
Excerpt: Experiments were designed to test whether or not the MANS peptide and other test peptides related thereto inhibit hypersecretion of mucin in murine airway in vivo. The ovalbumin-sensitized mouse model of allergic inflammation and asthma used in these studies was as described by Singer et al. (2004), supra. As a negative control, a control peptide containing an N-terminal myristoyl group and the same amino acids as MANS peptide but arranged in random order (i.e., the random N-terminal sequence, RNS, myristoyl-peptide 232) was tested alongside the proposed active peptides. BP2 mice, aged 6-8 wks, were immunized subcutaneously twice at weekly intervals with 1 μg of ovalbumin. After 14 days of sensitization, the animals were exposed to aerosolized ovalbumin, which causes a pronounced goblet cell hyperplasia after 72 hours. At the 72 hr time point, the secretagogue, methacholine ([…]) was delivered using a Buxco system nebulizer providing a fine aerosol for 90 seconds. Fifteen min prior to the secretagogue challenge, 50 μL of the test peptide, at 3 different concentrations (10 μM, 100 μM, or 140 μM), was administered by intratracheal route. The RNS peptide was tested at the highest dose level only (50 μL of 140 μM solution). […] Each experiment was carried out in 6 mice per point, and each set of experiments was repeated 3 times. To test strain-to-strain variations, the above experiment was repeated in Balb/C mice under similar protocol. Both stimulated and unstimulated mucin secretion, in mice treated with […] sodium acetate (data not shown), were identical to saline control. Following the methacholine challenge, the animals were sacrificed and bronchoalveolar lavage (BAL) performed on 6 animals per group for analysis of secreted mucin.
Mice were sacrificed by cervical dislocation, followed by rapid exposure of the trachea and insertion of a cannula through a small incision. Bronchoalveolar lavage (BAL) fluid was collected with 0.5 ml followed by 3×1 ml PBS containing PMSF (5 mM), EDTA (5 mM), and DTT (5 mM). BAL fluid was separated into cell-free and cell fractions via brief centrifugation prior to any analyses being performed. The cell-free supernatants were analyzed for the presence of mucin via an ELISA method using anti-mucin antibodies shown to react with mouse mucin. Specifically, a mouse anti-MUC5AC antibody that recognizes the carbohydrate portion of secreted mucin was used in these assays. Data generated from each BAL sample were normalized to total protein as determined by Bradford assay. Mucin content was expressed as the value obtained with the anti-mucin antibody minus that obtained with the non-immune control antibody. All ELISA data were statistically examined using a one-way ANOVA.
In the case of `CCCCCCCCCCCCCC(=O)NCC(=O)N[C@@H](C)C(=O)N[C@@H](CCC(N)=O)C(=O)N[C@@H](Cc1ccccc1)C(=O)N[C@@H](CO)C(=O)N[C@@H](CCCCN)C(=O)N[C@H](C(=O)N[C@@H](C)C(=O)O)[C@@H](C)O` [myr-peptide 137] (Myristoyl-GAQFSKTA-OH), the “Mucin Secretion % control” value is reported as 55 % control. With `CCCCCCCCCCCCCC(=O)NCC(=O)N[C@@H](C)C(=O)N[C@@H](CCC(N)=O)C(=O)N[C@@H](Cc1ccccc1)C(=O)N[C@@H](CO)C(=O)N[C@@H](CCCCN)C(=O)N[C@H](C(=O)N[C@@H](C)C(=O)N[C@@H](C)C(=O)N[C@@H](CCCCN)C(=O)NCC(=O)N[C@@H](CCC(=O)O)C(=O)O)[C@@H](C)O` [myr-peptide 79] (Myristoyl-GAQFSKTAAKGE-OH) the “Mucin Secretion % control” value was 50 % control. In the case of `CCCCCCCCCCCCCC(=O)NCC(=O)N[C@@H](C)C(=O)N[C@@H](CCC(N)=O)C(=O)N[C@@H](Cc1ccccc1)C(=O)N[C@@H](CO)C(=O)N[C@@H](CCCCN)C(=O)N[C@H](C(=O)N[C@@H](C)C(N)=O)[C@@H](C)O` [myr-peptide 137-NH2] (Myristoyl-GAQFSKTA-NH2), the “Mucin Secretion % control” value is reported as 56 % control. In the case of “H-GAQFSKTAAKGE-OH [peptide 79, GAQFSKTAAKGE]”, the “Mucin Secretion % control” value is reported as 10 % control.

Same assay, conditions: Table III, peptides at 100 μM
For `CCCCCCCCCCCCCC(=O)NCC(=O)N[C@@H](C)C(=O)N[C@@H](CCC(N)=O)C(=O)N[C@@H](Cc1ccccc1)C(=O)N[C@@H](CO)C(=O)N[C@@H](CCCCN)C(=O)N[C@H](C(=O)N[C@@H](C)C(=O)N[C@@H](C)C(=O)N[C@@H](CCCCN)C(=O)NCC(=O)N[C@@H](CCC(=O)O)C(=O)N[C@@H](C)C(=O)N[C@@H](C)C(=O)N[C@@H](C)C(=O)N[C@@H](CCC(=O)O)C(=O)O)[C@@H](C)O` [myr-peptide 37] (Myristoyl-GAQFSKTAAKGEAAAE-OH), the “Mucin Secretion % control” value was 35** % control. In the case of `CCCCCCCCCCCCCC(=O)N[C@@H](CO)C(=O)N[C@@H](CCCCN)C(=O)N[C@H](C(=O)N[C@@H](C)C(=O)N[C@@H](C)C(=O)N[C@@H](CCCCN)C(=O)NCC(=O)N[C@@H](CCC(=O)O)C(=O)N[C@@H](C)C(=O)N[C@@H](C)C(=O)N[C@@H](C)C(=O)N[C@@H](CCC(=O)O)C(=O)N[C@@H](CCCNC(=N)N)C(=O)N1CCC[C@H]1C(=O)NCC(=O)N[C@@H](CCC(=O)O)C(=O)N[C@@H](C)C(=O)N[C@@H](C)C(=O)N[C@H](C(=O)N[C@@H](C)C(=O)O)C(C)C)[C@@H](C)O` [myr-peptide 15] (Myristoyl-SKTAAKGEAAAERPGEAAVA-OH), the “Mucin Secretion % control” value is reported as 38* % control. In the case of `CCCCCCCCCCCCCC(=O)NCC(=O)N[C@@H](C)C(=O)N[C@@H](CCC(N)=O)C(=O)N[C@@H](Cc1ccccc1)C(=O)N[C@@H](CO)C(=O)N[C@@H](CCCCN)C(=O)N[C@H](C(=O)N[C@@H](C)C(=O)N[C@@H](C)C(=O)N[C@@H](CCCCN)C(=O)NCC(=O)N[C@@H](CCC(=O)O)C(=O)O)[C@@H](C)O` [myr-peptide 79] (Myristoyl-GAQFSKTAAKGE-OH), the “Mucin Secretion % control” value is reported as 48 % control. In the case of `CCCCCCCCCCCCCC(=O)N[C@@H](C)C(=O)N[C@@H](C)C(=O)N[C@@H](C)C(=O)N[C@@H](CCC(=O)O)C(=O)N[C@@H](CCCNC(=N)N)C(=O)N1CCC[C@H]1C(=O)NCC(=O)N[C@@H](CCC(=O)O)C(=O)N[C@@H](C)C(=O)N[C@@H](C)C(=O)N[C@H](C(=O)N[C@@H](C)C(=O)O)C(C)C` [myr-peptide 91] (Myristoyl-AAAERPGEAAVA-OH), the “Mucin Secretion % control” value is reported as 68 % control.

Test system: not listed separately
Experiment: Qualitative solubility of test peptides in 0.5 N saline
Assay type: physicochemical
Details: pH 6.5, 20° C. (table title)
Method: Various test peptides (1 to 5 mg each) were weighed out accurately in individual 2 mL screw cap glass vials and aliquots of 25 μL of 0.5 N saline, pH 6.5, were added at 25° C. and ambient pressure. The solubility was evaluated visually. If the test peptide dissolves completely with the first aliquot of saline, its solubility was calculated and designated as more than the calculated amount. […] Similarly, if 1.7 mg of a test peptide fails to dissolve in 1.7 mL of 0.5 N saline, its solubility is stated as <1.0 mg/mL.
With Ac-SKTAAKGE-NH2 [Ac-peptide 141-NH2] the solubility was > 200 mg/mL. With `CCCCCCCCCCCCCC(=O)NCC(=O)N[C@@H](C)C(=O)N[C@@H](CCC(N)=O)C(=O)N[C@@H](Cc1ccccc1)C(=O)N[C@@H](CO)C(=O)N[C@@H](CCCCN)C(=O)N[C@H](C(=O)N[C@@H](C)C(=O)N[C@@H](C)C(=O)N[C@@H](CCCCN)C(=O)NCC(=O)N[C@@H](CCC(=O)O)C(=O)N[C@@H](C)C(=O)N[C@@H](C)C(=O)N[C@@H](C)C(=O)N[C@@H](CCC(=O)O)C(=O)O)[C@@H](C)O` [myr-peptide 37] (Myristoyl-GAQFSKTAAKGEAAAE-OH) the solubility was > 2 mg/mL. In the case of Ac-KTAAKGE-NH2 [Ac-peptide 159-NH2], the solubility is reported as > 200 mg/mL. With “Ac-GAQFSKTAAKGEAAAERPGEAAVA-OH [Ac-peptide 1]” the solubility was > 125 mg/mL. In the case of `CCCCCCCCCCCCCC(=O)NCC(=O)N[C@@H](C)C(=O)N[C@@H](CCC(N)=O)C(=O)N[C@@H](C)C(=O)N[C@@H](CO)C(=O)N[C@@H](CCCCN)C(=O)N[C@H](C(=O)N[C@@H](C)C(=O)N[C@@H](C)C(=O)N[C@@H](CCCCN)C(=O)NCC(=O)N[C@@H](CCC(=O)O)C(N)=O)[C@@H](C)O` [myr-peptide 237-NH2] (Myristoyl-GAQASKTAAKGE-NH2), the solubility is reported as < 1 mg/mL. In the case of Ac-GAQFAKTAAK-OH [Ac-peptide 244], the solubility is reported as > 120 mg/mL. In the case of `CCCCCCCCCCCCCC(=O)N[C@H](C(=O)N[C@@H](C)C(=O)N[C@@H](C)C(=O)N[C@@H](CCCCN)C(=O)NCC(=O)N[C@@H](CCC(=O)O)C(=O)N[C@@H](C)C(=O)N[C@@H](C)C(=O)O)[C@@H](C)O` [myr-peptide 143] (Myristoyl-TAAKGEAA-OH), the solubility is reported as < 1 mg/mL. For `CCCCCCCCCCCCCC(=O)N[C@@H](C)C(=O)N[C@@H](C)C(=O)N[C@@H](CCCCN)C(=O)NCC(=O)N[C@@H](CCC(=O)O)C(=O)N[C@@H](C)C(=O)O` [myr-peptide 179] (Myristoyl-AAKGEA-OH), the solubility was < 1 mg/mL. With `CCCCCCCCCCCCCC(=O)NCC(=O)N[C@@H](C)C(=O)N[C@@H](CCC(=O)O)C(=O)N[C@@H](Cc1ccccc1)C(=O)N[C@@H](CO)C(=O)N[C@@H](CCCCN)C(=O)N[C@H](C(=O)N[C@@H](C)C(=O)N[C@@H](C)C(=O)N[C@@H](CCCCN)C(=O)NCC(=O)N[C@@H](CCC(=O)O)C(=O)O)[C@@H](C)O` [myr-peptide 238] (Myristoyl-GAEFSKTAAKGE-OH) the solubility was > 2 mg/mL. For “Ac-GKASQFAKTA-OH [Ac-peptide 252, reference compound]”, the solubility was < 30 mg/mL. With `CCCCCCCCCCCCCC(=O)NCC(=O)N[C@@H](C)C(=O)N[C@@H](CCC(N)=O)C(=O)N[C@@H](Cc1ccccc1)C(=O)N[C@@H](CO)C(=O)N[C@@H](CCCCN)C(=O)N[C@H](C(=O)N[C@@H](C)C(=O)O)[C@@H](C)O` [myr-peptide 137] (Myristoyl-GAQFSKTA-OH) the solubility was < 1 mg/mL. In the case of Ac-AAQFSKTAAK-OH [Ac-peptide 242], the solubility is reported as > 100 mg/mL. For Ac-GAQFSKTAAA-OH [Ac-peptide 248], the solubility was > 100 mg/mL. With Ac-GAQFSKTAAKGA-OH [Ac-peptide 241] the solubility was > 50 mg/mL. For `CCCCCCCCCCCCCC(=O)N[C@@H](CO)C(=O)N[C@@H](CCCCN)C(=O)N[C@H](C(=O)N[C@@H](C)C(=O)N[C@@H](C)C(=O)N[C@@H](CCCCN)C(=O)NCC(=O)N[C@@H](CCC(=O)O)C(=O)N[C@@H](C)C(=O)N[C@@H](C)C(=O)N[C@@H](C)C(=O)N[C@@H](CCC(=O)O)C(=O)N[C@@H](CCCNC(=N)N)C(=O)N1CCC[C@H]1C(=O)NCC(=O)N[C@@H](CCC(=O)O)C(=O)N[C@@H](C)C(=O)N[C@@H](C)C(=O)N[C@H](C(=O)N[C@@H](C)C(=O)O)C(C)C)[C@@H](C)O` [myr-peptide 15] (Myristoyl-SKTAAKGEAAAERPGEAAVA-OH), the solubility was > 80 mg/mL. With `CCCCCCCCCCCCCC(=O)NCC(=O)N[C@@H](C)C(=O)N[C@@H](CCC(N)=O)C(=O)N[C@@H](Cc1ccccc1)C(=O)N[C@@H](CO)C(=O)N[C@@H](CCCCN)C(=O)N[C@H](C(=O)N[C@@H](C)C(=O)N[C@@H](C)C(=O)N[C@@H](CCCCN)C(=O)NCC(=O)N[C@@H](CCC(=O)O)C(=O)O)[C@@H](C)O` [myr-peptide 79] (Myristoyl-GAQFSKTAAKGE-OH) the solubility was > 2 mg/mL. In the case of `CCCCCCCCCCCCCC(=O)N[C@@H](C)C(=O)N[C@@H](C)C(=O)N[C@@H](C)C(=O)N[C@@H](CCC(=O)O)C(=O)N[C@@H](CCCNC(=N)N)C(=O)N1CCC[C@H]1C(=O)NCC(=O)N[C@@H](CCC(=O)O)C(=O)N[C@@H](C)C(=O)N[C@@H](C)C(=O)N[C@H](C(=O)N[C@@H](C)C(=O)O)C(C)C` [myr-peptide 91] (Myristoyl-AAAERPGEAAVA-OH), the solubility is reported as < 20 mg/mL. For “H-GAQFSKTAAKGE-OH [peptide 79, GAQFSKTAAKGE]”, the solubility was > 60 mg/mL.
